Measured values as given in PubChem BioAssay (NCI).
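A five-concentration, 48-hour dose response in 96-well plates underlies each endpoint, interpolated linearly between surrounding concentrations. TGI is the concentration that stops growth completely.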

Experiments:
Assay in all cases: NCI-60 cell line screen, 48 h
CAKI-1 renal = test system: CAKI-1 renal
MALME-3M melanoma = test system: MALME-3M melanoma
OVCAR-8 ovarian = test system: OVCAR-8 ovarian
KM12 colon = test system: KM12 colon
OVCAR-4 ovarian = test system: OVCAR-4 ovarian
SK-MEL-5 melanoma = test system: SK-MEL-5 melanoma
HCC-2998 colon = test system: HCC-2998 colon
IGROV1 ovarian = test system: IGROV1 ovarian
HOP-62 NSCLC = test system: HOP-62 NSCLC
M14 melanoma = test system: M14 melanoma
NCI-H23 lung = test system: NCI-H23 lung
SK-MEL-2 melanoma = test system: SK-MEL-2 melanoma
SR leukemia = test system: SR leukemia
OVCAR-5 ovarian = test system: OVCAR-5 ovarian
HL-60(TB) leukemia = test system: HL-60(TB) leukemia
HT29 colon = test system: HT29 colon
DMS 114 small cell lung = test system: DMS 114 small cell lung
UACC-62 melanoma = test system: UACC-62 melanoma
HOP-92 NSCLC = test system: HOP-92 NSCLC
CCRF-CEM leukemia = test system: CCRF-CEM leukemia
RPMI-8226 leukemia = test system: RPMI-8226 leukemia
SK-OV-3 ovarian = test system: SK-OV-3 ovarian
DLD-1 colon = test system: DLD-1 colon
RXF 393 renal = test system: RXF 393 renal
TK-10 renal = test system: TK-10 renal
EKVX NSCLC = test system: EKVX NSCLC
A498 renal = test system: A498 renal
NCI-H460 lung = test system: NCI-H460 lung
ACHN renal = test system: ACHN renal
M19-MEL melanoma = test system: M19-MEL melanoma
MOLT-4 leukemia = test system: MOLT-4 leukemia
NCI-H522 lung = test system: NCI-H522 lung
OVCAR-3 ovarian = test system: OVCAR-3 ovarian
K-562 leukemia = test system: K-562 leukemia
786-0 renal = test system: 786-0 renal
COLO 205 colon = test system: COLO 205 colon
SF-268 CNS = test system: SF-268 CNS
HCT-116 colon = test system: HCT-116 colon
A549 NSCLC = test system: A549 NSCLC
KM20L2 colon = test system: KM20L2 colon
SF-539 CNS = test system: SF-539 CNS
SW-620 colon = test system: SW-620 colon
SN12C renal = test system: SN12C renal
SK-MEL-28 melanoma = test system: SK-MEL-28 melanoma
UO-31 renal = test system: UO-31 renal
SNB-19 CNS = test system: SNB-19 CNS
UACC-257 melanoma = test system: UACC-257 melanoma
SF-295 CNS = test system: SF-295 CNS
MDA-MB-231 breast = test system: MDA-MB-231 breast
NCI-H226 lung = test system: NCI-H226 lung
MDA-MB-435 = test system: MDA-MB-435
T-47D breast = test system: T-47D breast
NCI/ADR-RES ovarian = test system: NCI/ADR-RES ovarian
U251 CNS = test system: U251 CNS
LOX IMVI melanoma = test system: LOX IMVI melanoma
BT-549 breast = test system: BT-549 breast
SNB-75 CNS = test system: SNB-75 CNS
MDA-N = test system: MDA-N
MCF7 breast = test system: MCF7 breast
PC-3 prostate = test system: PC-3 prostate
HCT-15 colon = test system: HCT-15 colon
DU-145 prostate = test system: DU-145 prostate
HS 578T breast = test system: HS 578T breast

For CNS(=O)(=O)NNS(=O)(=O)c1ccc(C)cc1, the TGI (CAKI-1 renal) was greater than 100 µM, the TGI (MALME-3M melanoma) was greater than 100 µM and the TGI (OVCAR-8 ovarian) was greater than 100 µM. The TGI (KM12 colon) was greater than 100 µM, the TGI (OVCAR-4 ovarian) was greater than 100 µM and the TGI (SK-MEL-5 melanoma) was greater than 100 µM. The TGI (HCC-2998 colon) was greater than 100 µM, the TGI (IGROV1 ovarian) was greater than 100 µM and the TGI (HOP-62 NSCLC) was greater than 100 µM. For the same molecule, the TGI (M14 melanoma) was greater than 100 µM, the TGI (NCI-H23 lung) was greater than 100 µM and the TGI (SK-MEL-2 melanoma) was greater than 100 µM. For the same molecule, the TGI (SR leukemia) was greater than 100 µM, the TGI (OVCAR-5 ovarian) was greater than 100 µM and the TGI (HL-60(TB) leukemia) was greater than 100 µM. For the same molecule, the TGI (HT29 colon) was greater than 100 µM, the TGI (DMS 114 small cell lung) was greater than 100 µM and the TGI (UACC-62 melanoma) was greater than 100 µM. The TGI (HOP-92 NSCLC) was greater than 100 µM, the TGI (CCRF-CEM leukemia) was greater than 100 µM and the TGI (RPMI-8226 leukemia) was greater than 100 µM. The TGI (SK-OV-3 ovarian) was greater than 100 µM, the TGI (DLD-1 colon) was greater than 100 µM and the TGI (RXF 393 renal) was greater than 100 µM. For the same molecule, the TGI (TK-10 renal) was greater than 100 µM, the TGI (EKVX NSCLC) was greater than 100 µM and the TGI (A498 renal) was greater than 100 µM. For the same molecule, the TGI (NCI-H460 lung) was greater than 100 µM, the TGI (ACHN renal) was greater than 100 µM and the TGI (M19-MEL melanoma) was greater than 100 µM. For the same molecule, the TGI (MOLT-4 leukemia) was greater than 100 µM, the TGI (NCI-H522 lung) was greater than 100 µM and the TGI (OVCAR-3 ovarian) was greater than 100 µM. The TGI (K-562 leukemia) was greater than 100 µM, the TGI (786-0 renal) was greater than 100 µM and the TGI (COLO 205 colon) was greater than 100 µM. It also gave a TGI (SF-268 CNS) greater than 100 µM, a TGI (HCT-116 colon) greater than 100 µM and a TGI (A549 NSCLC) greater than 100 µM. The TGI (KM20L2 colon) was greater than 100 µM, the TGI (SF-539 CNS) was greater than 100 µM and the TGI (SW-620 colon) was greater than 100 µM. For the same molecule, the TGI (SN12C renal) was greater than 100 µM, the TGI (SK-MEL-28 melanoma) was greater than 100 µM and the TGI (UO-31 renal) was greater than 100 µM. It also gave a TGI (SNB-19 CNS) greater than 100 µM, a TGI (UACC-257 melanoma) greater than 100 µM and a TGI (SF-295 CNS) greater than 100 µM.

With CC(=O)Oc1ccc(-c2nnc(-c3ccc(OC(C)=O)cc3)nn2)cc1 the TGI (CAKI-1 renal) was greater than 100 µM, the TGI (MDA-MB-231 breast) was greater than 100 µM and the TGI (MALME-3M melanoma) was greater than 100 µM. For the same molecule, the TGI (OVCAR-8 ovarian) was greater than 100 µM, the TGI (KM12 colon) was greater than 100 µM and the TGI (OVCAR-4 ovarian) was greater than 100 µM. For the same molecule, the TGI (NCI-H226 lung) was greater than 100 µM, the TGI (MDA-MB-435) was greater than 100 µM and the TGI (SK-MEL-5 melanoma) was greater than 100 µM. It also gave a TGI (IGROV1 ovarian) greater than 100 µM, a TGI (HOP-62 NSCLC) greater than 100 µM and a TGI (M14 melanoma) greater than 100 µM. It also gave a TGI (NCI-H23 lung) greater than 100 µM, a TGI (SK-MEL-2 melanoma) greater than 100 µM and a TGI (SR leukemia) of 88.1 µM. For the same molecule, the TGI (OVCAR-5 ovarian) was greater than 100 µM, the TGI (HL-60(TB) leukemia) was 84 µM and the TGI (T-47D breast) was greater than 100 µM. The TGI (NCI/ADR-RES ovarian) was greater than 100 µM, the TGI (HT29 colon) was greater than 100 µM and the TGI (UACC-62 melanoma) was greater than 100 µM. The TGI (HOP-92 NSCLC) was greater than 100 µM, the TGI (CCRF-CEM leukemia) was greater than 100 µM and the TGI (RPMI-8226 leukemia) was greater than 100 µM. The TGI (SK-OV-3 ovarian) was greater than 100 µM, the TGI (U251 CNS) was greater than 100 µM and the TGI (LOX IMVI melanoma) was greater than 100 µM. It also gave a TGI (BT-549 breast) greater than 100 µM, a TGI (RXF 393 renal) greater than 100 µM and a TGI (TK-10 renal) greater than 100 µM. The TGI (EKVX NSCLC) was greater than 100 µM, the TGI (SNB-75 CNS) was greater than 100 µM and the TGI (A498 renal) was greater than 100 µM. For the same molecule, the TGI (MDA-N) was greater than 100 µM, the TGI (NCI-H460 lung) was greater than 100 µM and the TGI (MCF7 breast) was greater than 100 µM. It also gave a TGI (ACHN renal) greater than 100 µM, a TGI (MOLT-4 leukemia) greater than 100 µM and a TGI (NCI-H522 lung) greater than 100 µM. It also gave a TGI (PC-3 prostate) greater than 100 µM, a TGI (OVCAR-3 ovarian) greater than 100 µM and a TGI (HCT-15 colon) greater than 100 µM. For the same molecule, the TGI (K-562 leukemia) was greater than 100 µM, the TGI (786-0 renal) was greater than 100 µM and the TGI (COLO 205 colon) was greater than 100 µM. The TGI (SF-268 CNS) was greater than 100 µM, the TGI (HCT-116 colon) was greater than 100 µM and the TGI (A549 NSCLC) was greater than 100 µM. It also gave a TGI (SF-539 CNS) greater than 100 µM, a TGI (SW-620 colon) greater than 100 µM and a TGI (SN12C renal) greater than 100 µM. It also gave a TGI (SK-MEL-28 melanoma) greater than 100 µM, a TGI (UO-31 renal) greater than 100 µM and a TGI (SNB-19 CNS) greater than 100 µM. The TGI (DU-145 prostate) was greater than 100 µM, the TGI (HS 578T breast) was greater than 100 µM and the TGI (UACC-257 melanoma) was greater than 100 µM. For the same molecule, the TGI (SF-295 CNS) was greater than 100 µM.
